Results published in patent US20190343908A1, “Therapeutic Combination for the Treatment of Cancer” (Nerium Biotechnology Inc., priority 2011, published 2019).

How the values were obtained:
[1] = system: PC3 (human prostate cancer); experiment: Crystal Violet viability assay, PC3; type: cell-based
Excerpt: (§1) Three different viability assays were chosen to complement each other and yielded results dependent on concentration and cell line: the Methyl Tetrazolium dye assay, the Sulforhodamine B fluorescent dye assay, and the Crystal Violet dye assay.
(§2) The Sulforhodamine B and Crystal Violet assays provide information about protein and were used to complement the Methyl-Tetrazolium dye assay. […] It is used for the quantification of cellular proteins of cultured cells. The assay using Crystal Violet, a dye that binds electrostatically to proteins and stains DNA, provides a reliable, simple assay for measuring viability of cells.
(§3) The Methyl Tetrazolium, Sulforhodamine B, and Crystal Violet assays were used to assess cell viabilities. The incubation times were 24 hours, 48 hours, and 72 hours. The Nerium oleander extract Anvirzel™ (a hot water extract of oleander obtained from Salud Integral, Honduras) was tested in concentrations ranging from 0.01 ng/mL to 10 ng/mL.
(§4) Cells were detached by trypsinization (Trypsin-0.25% EDTA, Invitrogen, 25200-072) during the logarithmic phase of culture growth and plated in 96-well plates (18.000 cells/well) (Corning, Costar 359) in a final volume of 200 μl of medium per well. […] The absorbance was measured after 24 hours, 48 hours, and 72 hours of incubation.
(§5) For the Crystal Violet assay, the medium was removed from the 96-well plates, the plates rinsed with PBS (Sigma, P3813) and then the cells were […] by the addition of 10% formalin (MERCK, 1.04003.2500) for 20 minutes at RT. Formalin was removed and 0.25% aqueous crystal violet (Sigma, HT901), dissolved in water, was added for 10 minutes at RT. Unbound Crystal Violet was rinsed by washing with water and finally 33% acetic acid was added to dissolve the dye.
(§6) The optical density of each plate was measured on a μQuant spectrophotometer and the data were analyzed with Gen5 software (μQuant Biomolecular Spectrophotometer MQX200 and Gen5™ Microplate Data Collection & Analysis software, BioTek® Instruments. Inc, April 2008). Absorbance was measured at 570 nm for all assays and a second wavelength was measured in order to subtract noise. For the Methyl-Tetrazolium assay this second wavelength was 630 nm and for the Sulforhodamine B and Crystal Violet assays it was 690 nm.

[2] = system: COR-L 105 (non-small cell lung carcinoma); experiment: Sulforhodamine B viability assay, COR-L 105; type: cell-based, human; parameters: key to SRB Average: absorbance (optical density) at 570 nm, second wavelength subtracted; settings: for SRB Average 24 h / SRB Average 48 h / SRB Average 72 h: COR-L 105, Run 3
Excerpt: as §1, §2, §3, §4
For the Sulforhodamine B assay, 96-well plates were fixed by 10% trichloroacetic acid (Fluka, 91228) and were incubated at 4° C. for 1 hour. Afterwards, plates were rinsed with water and cells were stained with 0.4% Sulforhodamine B (Sigma, 341738), dissolved in 1% acetic acid (Carlo Ebra, 401422) for 15 minutes at room temperature (RT). The unbound stain was washed twice with 1% acetic acid. Finally, 10 mM Tris Buffer pH 10.5 (Sigma, T6791) was added to dissolve the dye.
as §6

[3] = system: CALU-1 (non-small cell lung carcinoma); experiment: Crystal Violet viability assay, CALU-1; type: cell-based, human
Excerpt: as §2, §3, §4, §5, §6

N.N.[Cl][Pt][Cl] [cisplatin]
CVE Average ([1]; PC3 Run 1, 24 h, 0.1 μg/ml CDDP): 0.73
CVE Average ([1]; PC3 Run 1, 24 h, 1 μg/ml CDDP): 0.368
CVE Average ([1]; PC3 Run 1, 24 h, 10 μg/ml CDDP): 0.548
CVE Average ([1]; PC3 Run 1, 24 h, 100 μg/ml CDDP): 0.337
CVE Average ([1]; PC3 Run 1, 48 h, 0.1 μg/ml CDDP): 0.938
CVE Average ([1]; PC3 Run 1, 48 h, 1 μg/ml CDDP): 0.483
CVE Average ([1]; PC3 Run 1, 48 h, 10 μg/ml CDDP): 0.706
CVE Average ([1]; PC3 Run 1, 48 h, 100 μg/ml CDDP): 0.619
CVE Average ([1]; PC3 Run 1, 72 h, 0.1 μg/ml CDDP): 1.091
CVE Average ([1]; PC3 Run 1, 72 h, 1 μg/ml CDDP): 0.415
CVE Average ([1]; PC3 Run 1, 72 h, 10 μg/ml CDDP): 0.64
CVE Average ([1]; PC3 Run 1, 72 h, 100 μg/ml CDDP): 0.421
CVE Average ([1]; PC3 Run 2, 24 h, 0.1 μg/ml CDDP): 0.489
CVE Average ([1]; PC3 Run 2, 24 h, 1 μg/ml CDDP): 0.238
CVE Average ([1]; PC3 Run 2, 24 h, 10 μg/ml CDDP): 0.498
CVE Average ([1]; PC3 Run 2, 24 h, 100 μg/ml CDDP): 0.309
CVE Average ([1]; PC3 Run 2, 48 h, 0.1 μg/ml CDDP): 0.714
CVE Average ([1]; PC3 Run 2, 48 h, 1 μg/ml CDDP): 0.393
CVE Average ([1]; PC3 Run 2, 48 h, 10 μg/ml CDDP): 0.694
CVE Average ([1]; PC3 Run 2, 48 h, 100 μg/ml CDDP): 0.419
CVE Average ([1]; PC3 Run 2, 72 h, 0.1 μg/ml CDDP): 0.76
CVE Average ([1]; PC3 Run 2, 72 h, 1 μg/ml CDDP): 0.284
CVE Average ([1]; PC3 Run 2, 72 h, 10 μg/ml CDDP): 0.526
CVE Average ([1]; PC3 Run 2, 72 h, 100 μg/ml CDDP): 0.316
CVE Average ([1]; PC3 Run 3, 24 h, 0.1 μg/ml CDDP): 0.653
CVE Average ([1]; PC3 Run 3, 24 h, 1 μg/ml CDDP): 0.551
CVE Average ([1]; PC3 Run 3, 24 h, 10 μg/ml CDDP): 0.638
CVE Average ([1]; PC3 Run 3, 24 h, 100 μg/ml CDDP): 0.301
CVE Average ([1]; PC3 Run 3, 48 h, 0.1 μg/ml CDDP): 0.599
CVE Average ([1]; PC3 Run 3, 48 h, 1 μg/ml CDDP): 0.4
CVE Average ([1]; PC3 Run 3, 48 h, 10 μg/ml CDDP): 0.599
CVE Average ([1]; PC3 Run 3, 48 h, 100 μg/ml CDDP): 0.367
CVE Average ([1]; PC3 Run 3, 72 h, 0.1 μg/ml CDDP): 0.927
CVE Average ([1]; PC3 Run 3, 72 h, 1 μg/ml CDDP): 1.001
CVE Average ([1]; PC3 Run 3, 72 h, 10 μg/ml CDDP): 0.666
CVE Average ([1]; PC3 Run 3, 72 h, 100 μg/ml CDDP): 0.282
SRB Average 24 h ([2]; 0.1 μg/ml CDDP): 1.731
SRB Average 48 h ([2]; 0.1 μg/ml CDDP): 2.759
SRB Average 72 h ([2]; 0.1 μg/ml CDDP): 2.681
SRB Average 24 h ([2]; 1 μg/ml CDDP): 1.862
SRB Average 48 h ([2]; 1 μg/ml CDDP): 2.832
SRB Average 72 h ([2]; 1 μg/ml CDDP): 2.654
SRB Average 24 h ([2]; 10 μg/ml CDDP): 1.565
SRB Average 48 h ([2]; 10 μg/ml CDDP): 2.85
SRB Average 72 h ([2]; 10 μg/ml CDDP): 2.737
SRB Average 24 h ([2]; 100 μg/ml CDDP): 1.113
SRB Average 48 h ([2]; 100 μg/ml CDDP): 2.596
SRB Average 72 h ([2]; 100 μg/ml CDDP): 2.819
SRB Average ([2]; Run 1, 24 h, 0.1 μg/ml CDDP): 1.526
SRB Average ([2]; Run 1, 24 h, 1 μg/ml CDDP): 1.714
SRB Average ([2]; Run 1, 24 h, 10 μg/ml CDDP): 1.386
SRB Average ([2]; Run 1, 24 h, 100 μg/ml CDDP): 1.523
SRB Average ([2]; Run 1, 48 h, 0.1 μg/ml CDDP): 1.705
SRB Average ([2]; Run 1, 48 h, 1 μg/ml CDDP): 1.716
SRB Average ([2]; Run 1, 48 h, 10 μg/ml CDDP): 1.465
SRB Average ([2]; Run 1, 48 h, 100 μg/ml CDDP): 1.415
SRB Average ([2]; Run 1, 72 h, 0.1 μg/ml CDDP): 1.491
SRB Average ([2]; Run 1, 72 h, 1 μg/ml CDDP): 1.356
SRB Average ([2]; Run 1, 72 h, 10 μg/ml CDDP): 1.544
SRB Average ([2]; Run 1, 72 h, 100 μg/ml CDDP): 1.456
SRB Average ([2]; Run 2, 24 h, 0.1 μg/ml CDDP): 1.731
SRB Average ([2]; Run 2, 24 h, 1 μg/ml CDDP): 1.862
SRB Average ([2]; Run 2, 24 h, 10 μg/ml CDDP): 1.565
SRB Average ([2]; Run 2, 24 h, 100 μg/ml CDDP): 1.113
SRB Average ([2]; Run 2, 48 h, 0.1 μg/ml CDDP): 2.759
SRB Average ([2]; Run 2, 48 h, 1 μg/ml CDDP): 2.832
SRB Average ([2]; Run 2, 48 h, 10 μg/ml CDDP): 2.85
SRB Average ([2]; Run 2, 48 h, 100 μg/ml CDDP): 2.596
SRB Average ([2]; Run 2, 72 h, 0.1 μg/ml CDDP): 2.681
SRB Average ([2]; Run 2, 72 h, 1 μg/ml CDDP): 2.654
SRB Average ([2]; Run 2, 72 h, 10 μg/ml CDDP): 2.737
SRB Average ([2]; Run 2, 72 h, 100 μg/ml CDDP): 2.819
Average CVE 24 h ([3]; CALU-1 Run 1, 0.1 μg/ml CDDP): 0.554
Average CVE 48 h ([3]; CALU-1 Run 1, 0.1 μg/ml CDDP): 0.652
Average CVE 72 h ([3]; CALU-1 Run 1, 0.1 μg/ml CDDP): 0.441
Average CVE 24 h ([3]; CALU-1 Run 1, 1 μg/ml CDDP): 0.231
Average CVE 48 h ([3]; CALU-1 Run 1, 1 μg/ml CDDP): 0.661
Average CVE 72 h ([3]; CALU-1 Run 1, 1 μg/ml CDDP): 0.135
Average CVE 24 h ([3]; CALU-1 Run 1, 10 μg/ml CDDP): 0.421
Average CVE 48 h ([3]; CALU-1 Run 1, 10 μg/ml CDDP): 0.503
Average CVE 72 h ([3]; CALU-1 Run 1, 10 μg/ml CDDP): 0.157
Average CVE 24 h ([3]; CALU-1 Run 1, 100 μg/ml CDDP): 0.306
Average CVE 48 h ([3]; CALU-1 Run 1, 100 μg/ml CDDP): 0.409
Average CVE 72 h ([3]; CALU-1 Run 1, 100 μg/ml CDDP): 0.125
Average CVE 24 h ([3]; CALU-1 Run 2, 0.1 μg/ml CDDP): 0.484
Average CVE 48 h ([3]; CALU-1 Run 2, 0.1 μg/ml CDDP): 0.886
Average CVE 72 h ([3]; CALU-1 Run 2, 0.1 μg/ml CDDP): 0.786
Average CVE 24 h ([3]; CALU-1 Run 2, 1 μg/ml CDDP): 0.576
Average CVE 48 h ([3]; CALU-1 Run 2, 1 μg/ml CDDP): 0.563
Average CVE 72 h ([3]; CALU-1 Run 2, 1 μg/ml CDDP): 0.214
Average CVE 24 h ([3]; CALU-1 Run 2, 10 μg/ml CDDP): 0.64
Average CVE 48 h ([3]; CALU-1 Run 2, 10 μg/ml CDDP): 0.46
Average CVE 72 h ([3]; CALU-1 Run 2, 10 μg/ml CDDP): 0.254
Average CVE 24 h ([3]; CALU-1 Run 2, 100 μg/ml CDDP): 0.416
Average CVE 48 h ([3]; CALU-1 Run 2, 100 μg/ml CDDP): 0.352
Average CVE 72 h ([3]; CALU-1 Run 2, 100 μg/ml CDDP): 0.344
Average CVE 24 h ([3]; CALU-1 Run 3, 0.1 μg/ml CDDP, 24 h): 0.492
Average CVE 48 h ([3]; CALU-1 Run 3, 0.1 μg/ml CDDP, 48 h): 0.389
Average CVE 72 h ([3]; CALU-1 Run 3, 0.1 μg/ml CDDP, 72 h): 0.505
Average CVE 24 h ([3]; CALU-1 Run 3, 1 μg/ml CDDP, 24 h): 0.255
Average CVE 72 h ([3]; CALU-1 Run 3, 1 μg/ml CDDP, 72 h): 0.184
Average CVE 24 h ([3]; CALU-1 Run 3, 10 μg/ml CDDP, 24 h): 0.558
Average CVE 48 h ([3]; CALU-1 Run 3, 10 μg/ml CDDP, 48 h): 0.175
Average CVE 72 h ([3]; CALU-1 Run 3, 10 μg/ml CDDP, 72 h): 0.189
Average CVE 24 h ([3]; CALU-1 Run 3, 100 μg/ml CDDP, 24 h): 0.375
Average CVE 48 h ([3]; CALU-1 Run 3, 100 μg/ml CDDP, 48 h): 0.159
Average CVE 72 h ([3]; CALU-1 Run 3, 100 μg/ml CDDP, 72 h): 0.197
